Assay results as given in publication PMC10648942, “Safety and pharmacokinetics of SPR206 in subjects with varying degrees of renal impairment” (Antimicrobial Agents and Chemotherapy, 2023).
Read-outs that look alike come from different tables or passages of the source. Bridge positions count the residues as written; N and C are the ends. Square brackets hold non-standard residues; d marks the D form. Peptide text beside a SMILES is read from it. * marks the point of attachment. X1 = NC[C@@H](CC(=O)*)c1cccc(Cl)c1; Dab = NCC[C@H](N)C(=O)O; Dap = NC[C@H](N)C(=O)O

Experiments:
[1] = rat, in vivo; cited from earlier work
[2] = system: kidney cell; settings: cited from earlier work
[3] = parameters: species or system human; AUC0-8 vs eGFR regression, Coefficient (95% CI) / AUC0-last vs eGFR regression, Intercept / AUC0-last vs eGFR regression, Coefficient (95% CI) / AUC0-∞ vs eGFR regression, Intercept / AUC0-∞ vs eGFR regression, Coefficient (95% CI) / AUC0-8 vs eGFR regression, Intercept: unit not given beside the values; settings: in vivo
Experimental: To model the relationship between renal function and PK parameters, a linear regression analysis was performed using log-transformed values of AUC0–8, AUC0–last, AUC0–∞, C max, and CL, which were dependent variables. The independent variable to predict the PK parameters was eGFR after adjusting for baseline covariates (age, gender, race, and body weight). Parameter estimates, standard errors, confidence intervals (CIs), and P-values were presented.

[4] = human; cited from earlier work
[5] = clinical; parameters: species or system human; AUC0–∞ LS GMR vs healthy subjects, range / AUC0–last LS GMR vs healthy subjects, range / AUC0−8, LS GMR (90% CI): unit not given beside the values; settings: in vivo
Excerpt: This was a Phase 1, open-label study to assess the safety, tolerability, and PK of a single 100-mg IV dose of SPR206 administered to healthy adults with normal renal function and those with varying degrees of RI including subjects with ESRD on HD. Subjects were screened within 28 days prior to dosing. Study drug administration occurred on day 1 for Cohorts 1–4 (normal renal function, mild RI, moderate RI, and severe RI) and on days 1 and 5 for Cohort 5 (ESRD on HD). Subjects remained confined to the clinical study unit from day −1 (1 day prior to study drug administration) until completion of the scheduled study procedures at the end of confinement on day 4 (Cohorts 1–4) or on day 7 (Cohort 5). A follow-up safety visit occurred 7 to 14 calendar days after the last dose for all subjects.
On the morning of day 1, subjects in Cohorts 1–4 received a single 100-mg IV dose of […] infused over 1 h. Subjects in Cohort 5 received a single IV dose of SPR206 within 2 h (±1 h) after completion of regularly scheduled HD on day 1 (Period 1) and a second dose approximately 1 h prior to their regularly scheduled HD on day 5 (Period 2). Details of the HD procedure are provided in the Supplement.
(§1) Subjects in Cohorts 1–4 had serial blood samples collected to determine plasma SPR206 concentrations at pre-dose (0) and 0.5, 1, 1.25, 1.5, 2, 2.5, 3, 5, 8, 10, 12, 18, 24, and 36 h post-dose. Total voided urine was collected over a 2-h interval from −2 to 0 h (pre-dose) and at 0–4, 4–8, 8–12, 12–24, and 24–36 h post-dose. For subjects in Cohort 5, blood samples were collected on dosing days 1 and 5 pre-dose (0 h) and 0.5, 1, 1.25, 1.5, 2, 2.5, 3, 5, 8, 10, 12, 18, 24, and 36 h after dosing. On day 5 (Period 2), the 1-h post-dose sample was collected immediately prior to initiation of dialysis, and the 5-h post-dose sample was collected 10 min prior to the end of dialysis. The 36-h post-dose samples on days 3 and 7 were collected prior to the next dialysis session if scheduled on the same day. In Period 2, blood samples were collected from both the inflow (arterial) and outflow (venous) lines pre-dialysis and at approximately 1, 2, 3, and 4 h after initiation of HD on day 5. If the HD session was shorter or longer than 4 h after the start of HD, a final sample was collected at the end of dialysis. Plasma and urine samples were assayed for SPR206 using a validated liquid chromatography tandem mass spectrometry method (QPS, LLC, Newark, DE, USA). For plasma, the assay range was 50 to 50,000 ng/mL, and for urine, the range was 100 to 50,000 ng/mL. In plasma, the intraday precision (% coefficient of variation) ranged from 1.3% to 7.7%, and the accuracy (% relative error) ranged from 1.6% to 6.0%. In urine, the intraday precision (% coefficient of variation) ranged from 1.7% to 7.5%, and the accuracy (% relative error) ranged from −4.8% to 7.3%. Additional details are provided in the Supplement.
For all cohorts, the following PK parameters were calculated using noncompartmental methods based on plasma SPR206 concentrations: C max, T max, AUC0−last, AUC0−8, AUC0−∞, terminal elimination half-life (t 1/2), CL, and volume of distribution at the terminal phase (V Z). For Cohort 5, additional parameters were extraction ratio (ER), estimated hemodialysis clearance, and amount of the dose removed by hemodialysis. The ER was calculated as 100 × [(CA − CV)/CA], where CA and CV were predialyzer and postdialyzer paired drug concentrations at the arterial and venous sites. SPR206 clearance during HD (CLHD) was calculated using the following equation: CLHD = Q × ER, where Q was the known blood flow through the dialyzer. The amount of SPR206 removed by dialysis (XHD) was estimated by multiplying the AUC during dialysis [i.e., AUC from the beginning of dialysis to end of dialysis (AUCon–HD)] by CLHD: XHD = AUCon–HD × CLHD.
Mean and individual plasma concentration-time curves were tabulated for each cohort (and for Cohort 5 subjects by period). […]

[6] = human, in vivo, cited from earlier work
[7] = Safety/tolerability (TEAEs, laboratory, ECG), Phase 1 renal impairment study; assay type: in vivo, human
[8] = human, in vivo; cited from earlier work
[9] = parameters: species or system human; settings: in vivo
Experimental: as §1, with “Supplement. Urine PK parameters included Aet, Ae%, Aeu, CLR, Fe, and Feu.” for “Supplement.”

[10] = cited from earlier work
[11] = system: Enterobacterales; parameters: method as in doi:10.1093/ofid/ofac492.1306, doi:10.1093/ofid/ofac492.1307; settings: Enterobacterales clinical isolates; cited from earlier work
[12] = system: P. aeruginosa; parameters: method as in doi:10.1093/ofid/ofac492.1306, doi:10.1093/ofid/ofac492.1307; settings: P. aeruginosa clinical isolates; cited from earlier work
[13] = system: Acinetobacter species; parameters: method as in doi:10.1093/ofid/ofac492.1306, doi:10.1093/ofid/ofac492.1307; settings: Acinetobacter species clinical isolates; cited from earlier work

CC(C)C[C@@H]1NC(=O)[C@@H](Cc2ccccc2)NC(=O)[C@H](CCN)NC(=O)[C@@H](NC(=O)[C@H](CN)NC(=O)[C@@H](NC(=O)C[C@H](CN)c2cccc(Cl)c2)[C@@H](C)O)CCNC(=O)[C@H]([C@@H](C)O)NC(=O)[C@H](CCN)NC(=O)[C@H](CCN)NC1=O [SPR206] (X1-T[Dap][Dab][Dab][dF]L[Dab][Dab]T; lactam 3-C (inferred))
kidney exposure compared with polymyxin B [1]: lower kidney exposure
kidney cell cytotoxicity compared with polymyxin B [2]: lower kidney cell cytotoxicity
AUC0-8 vs eGFR regression, Coefficient (95% CI) [3]: −0.0063 (−0.0083, –0.0044)
AUC0-8 vs eGFR regression, Intercept [3]: 3.5
AUC0-last vs eGFR regression, Coefficient (95% CI) [3]: −0.0147 (−0.0168, –0.0125)
AUC0-last vs eGFR regression, Intercept [3]: 4.5
AUC0-∞ vs eGFR regression, Coefficient (95% CI) [3]: −0.0161 (−0.0190, –0.0131)
AUC0-∞ vs eGFR regression, Intercept [3]: 4.6
C max vs eGFR regression, Coefficient (95% CI) [3]: −0.0018 (−0.0040, 0.0005)
C max vs eGFR regression, Intercept [3]: 2.0
CL vs eGFR regression, Coefficient (95% CI) [3]: 0.0172 (0.0148, 0.0196)
CL vs eGFR regression, Intercept [3]: 0.1
Protein binding [4]: ≤ 12.8%
AUC0–last greater than healthy subjects ([5]; human): 131%
CL lower than healthy subjects ([5]; human): 75%
time of peak plasma concentration (end of infusion) ([5]; human): 1 h
AUC(0-t) ([5]; human, AUC0–8, LS GM (SE)): 21800 ng·h/mL
AUC(0-t) ([5]; human, AUC0−8, LS GM (SE)): 17300 ng·h/mL
Cmax ([5]; human, C max, LS GM (SE)): 5900 ng/mL
Cmax ([5]; human, iv, C max, geometric mean (CV %)): 5900 ng/mL
Cmax ([5]; human, mean peak concentration (C max)): ~6500 ng/mL
AUC0–last LS GMR vs healthy subjects, range [5]: 1.39-3.39
AUC0–∞ LS GMR vs healthy subjects, range [5]: 1.39-4.09
AUC0−8, LS GMR (90% CI) [5]: 0.59 (0.52, 0.67)
C max LS GMR vs healthy subjects, range [5]: 1.07-1.14
CL LS GMR vs healthy subjects, range [5]: 0.71-0.24
mean AUC0–last greater in subjects with RI vs healthy subjects [5]: 39-239%
mean AUC0–last lower, dialyzed vs nondialyzed [5]: 51%
mean plasma CL lower vs healthy subjects [5]: 29-76%
AUC0–∞ ([6]; iv): 20400 ng·h/mL
C max ([6]; iv): 5300 ng/mL
total CL ([6]; iv): 5.0 L/h
pharmacokinetic profile in a Phase 1 study [6]: dose-proportional
tolerability in a Phase 1 study [6]: well tolerated
deaths, treatment-related serious AEs, TEAEs leading to study discontinuation ([7]; all cohorts): No deaths, treatment-related serious AEs, or TEAEs leading to study discontinuation were reported
TEAE headache, overall incidence ([7]; in vivo): 13.5%
TEAE paresthesia, overall incidence ([7]; in vivo): 8.1%
clinical laboratory results, ECG findings, physical examination ([7]; in vivo): No clinically significant abnormalities
relation of the two serious (severe) TEAEs to study drug ([7]; in vivo): unrelated to study drug
serum creatinine levels from screening through follow-up ([7]; in vivo): remained stable
subjects whose TEAEs were mild ([7]; in vivo): 19 (51.4%) subjects (%)
subjects with at least one TEAE ([7]; in vivo): 23 (62.2%) subjects (%)
subjects with moderate TEAEs (infusion site phlebitis, drug hypersensitivity) leading to study drug discontinuation ([7]; in vivo): 5.4%
subjects with treatment-related AEs ([7]; in vivo): 13 (35.1%) subjects (%)
treatment-related adverse events, severity ([7]; in vivo): Mostly mild but no serious treatment-related adverse events were reported
TEAE oral paresthesia, overall incidence ([7]; in vivo, po): 8.1%
AUC0–8 [8]: 20100 ng·h/mL
C max [8]: 4400 ng/mL
mean CLR as % of total CL ([9]; human): 24.6%
time up to which urine concentrations were quantifiable [9]: up to 36 h
time within which SPR206 was excreted in urine [9]: ≤ 12 h

polymyxin B
route of elimination [10]: eliminated primarily by non-renal mechanisms

colistin
route of elimination ([10]; in vivo): eliminated primarily by non-renal mechanisms
MIC90 [11]: 0.5 µg/mL
MIC90 [12]: 1 µg/mL
MIC90 [13]: 1 µg/mL

colistin methanesulfonate
route of elimination ([10]; in vivo): eliminated predominantly by renal excretion
